In publication PMC8739840, “Structural and Molecular Insight into Piperazine and Piperidine Derivatives as Histamine H3 and Sigma-1 Receptor Antagonists with Promising Antinociceptive Properties” (ACS Chemical Neuroscience, 2021):
Counter-ions that a name gives are not always drawn. Like-named read-outs stand apart in the source and are kept apart here.

Assays:
H3R = conditions: Figure 1, clinically evaluated H3R antagonists; cited from earlier work
σ1R [1] = conditions: cited from earlier work
[2] = molecular target: T1, human recombinant histamine H3R (Homo sapiens, UniProt Q9Y5N1); conditions: mean [CI 95%]; read-out: hH3R Ki; cited from earlier work
T1 construct: expressed in transfected cells
T1 sequence (Q9Y5N1 whole entry): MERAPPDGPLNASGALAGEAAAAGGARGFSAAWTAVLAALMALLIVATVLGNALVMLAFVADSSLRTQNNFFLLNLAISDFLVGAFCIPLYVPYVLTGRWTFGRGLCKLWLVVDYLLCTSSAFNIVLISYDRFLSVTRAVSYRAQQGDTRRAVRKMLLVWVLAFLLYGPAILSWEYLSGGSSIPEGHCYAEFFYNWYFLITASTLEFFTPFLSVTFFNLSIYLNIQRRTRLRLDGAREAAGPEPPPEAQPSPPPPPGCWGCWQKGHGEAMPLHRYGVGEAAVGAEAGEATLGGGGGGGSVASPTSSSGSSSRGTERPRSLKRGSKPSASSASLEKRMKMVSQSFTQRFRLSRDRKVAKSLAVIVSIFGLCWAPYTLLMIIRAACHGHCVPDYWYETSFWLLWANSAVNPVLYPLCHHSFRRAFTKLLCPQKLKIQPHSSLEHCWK

σ2R [3] = molecular target: T2, σ2R (Rattus norvegicus, UniProt Q5U3Y7); assay: σ2R radioligand binding ([3H]DTG, liver membranes)
T2 sequence (Q5U3Y7 1-176): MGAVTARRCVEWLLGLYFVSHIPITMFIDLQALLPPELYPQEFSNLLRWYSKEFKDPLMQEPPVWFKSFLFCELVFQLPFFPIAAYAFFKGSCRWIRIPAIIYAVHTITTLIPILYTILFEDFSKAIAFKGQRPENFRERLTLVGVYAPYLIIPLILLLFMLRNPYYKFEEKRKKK

σ1R [4] = molecular target: σ1R (Cavia porcellus, UniProt Q60492); assay: σ1R radioligand binding ([3H](+)-pentazocine, brain cortex membranes)
σ1R (Cavia porcellus, UniProt Q60492), sequence (Q60492 whole entry): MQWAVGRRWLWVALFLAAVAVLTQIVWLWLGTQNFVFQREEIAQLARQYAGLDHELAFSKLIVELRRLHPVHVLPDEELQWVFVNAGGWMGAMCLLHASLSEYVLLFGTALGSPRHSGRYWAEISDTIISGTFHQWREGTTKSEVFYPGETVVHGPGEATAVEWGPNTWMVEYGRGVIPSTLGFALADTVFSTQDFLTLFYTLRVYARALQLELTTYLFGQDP

σ1R [5] = assay: as above; conditions: σ2R Ki / σ1R Ki (selectivity factor)
[6] = molecular target: T1, human recombinant histamine H3R; assay: hH3R radioligand depletion binding assay ([3H]Nα-methylhistamine); conditions: mean [CI 95%]; HEK293 cells; data not published yet
σ2R [7] = conditions: cited from earlier work
female CD1 mice = assay: loperamide-induced antinociception, paw pressure struggle response latency; assay type: in vivo; conditions: mice
[8] = Figure 1, clinically evaluated H3R antagonists, read-out: σ1R Ki
[9] = Table S1, well-known ligands (test set), no reference given, read-out: Exp. σ1 Ki
[10] = exptl Ki σ2, Table 3, given as mean ± spread
[11] = σ2R Ki, mean [CI 95%], [3H]DTG with (+)-pentazocine mask
[12] = exptl Ki σ1, Table 3, given as mean ± spread
[13] = σ1R Ki, mean [CI 95%], [3H](+)-pentazocine
[14] = Table S1, well-known ligands (test set), no reference given, read-out: Exp. σ2 Ki

Row | Structure (SMILES) | Ki (σ2R [3]; [10]) [nM] | Ki (σ2R [3]; [11]) [nM] | Ki (σ1R [4]; [12]) [nM] | Ki (σ1R [4]; [13]) [nM] | σ2/σ1 ratio (σ1R [5]) | also measured
1 | C[C@@H]1CCCN1CCc1cc2cc(-c3ccc(C#N)cc3)ccc2o1 [ABT-239] |  |  |  |  |  | Ki (H3R): 15.9 nM; Ki (σ1R [1]; [8]): 6.3 nM
2 | CN1CCN(CCc2ccc(Cl)c(Cl)c2)CC1 [BD1063] |  |  |  |  |  | Ki (σ1R [1]; [9]): 13.7 nM
3 | CCc1ccc(OCCCN2CCN(c3ccncc3)CC2)cc1 [Compound 1] | 64.3 ± 14 | 64.3 | 592 ± 94.1 | 592 | 0.1 | Ki [2]: 40.4 nM
4 | O=C(c1ccc(OCCCN2CCN(c3ccncc3)CC2)cc1)C1CC1 [Compound 4] | 101 ± 15.4 | 101 | 1530 ± 275 | 1530 | 0.1 | Ki [2]: 3 nM
5 | c1ccc(-c2ccc(OCCCN3CCN(c4ccncc4)CC3)cc2)cc1 [Compound 6] | 108 ± 19.2 | 108 | 638 ± 120 | 638 | 0.2 | Ki [2]: 21.1 nM
6 | N#Cc1ccc(-c2ccc(OCCCN3CCN(c4ccncc4)CC3)cc2)cc1 [Compound 7] | 75.2 ± 13 | 75.2 |  |  |  | 
7 | O=C(c1ccccc1)c1ccc(OCCCN2CCN(c3ccncc3)CC2)cc1 [Compound 8] | 29.2 ± 1.81 | 29.2 | 726 ± 177 | 726 |  | 
8 | C#CCN(C)Cc1cc2cc(OCCCN3CCCCC3)ccc2n1C [Contilisant] |  |  |  |  |  | Ki (H3R): 10.8 nM; Ki (σ1R [1]; [8]): 65.2 nM; Ki (σ2R [7]; Figure 1, clinically evaluated H3R antagonists, read-out: σ2R Ki): 326 nM
9 | COc1cc2c(cc1OC)CN(CCCCNC(=O)c1cc(C)ccc1OCCF)CC2 [F-ISO] |  |  |  |  |  | Ki (σ1R [1]; [9]): 330 nM; Ki (σ2R [7]; [14]): 6.95 nM
10 | CNC(=O)c1ccc(Oc2ccc3c(c2)CCN(C2CCC2)CC3)nc1 [GSK189254] |  |  |  |  |  | Ki (H3R): 1.7 nM; Ki (σ1R [1]; [8]): 240 nM
11 | CC(C(O)c1ccc(O)cc1)N1CCC(Cc2ccccc2)CC1 (stereo not shown) [Ifenprodil] |  |  |  |  |  | Ki (σ1R [1]; [9]): 1.02 nM; Ki (σ2R [7]; [14]): 18.8 nM
12 | c1cc(OCCCN2CCCCC2)ccc1CN1CCCCC1 [JNJ-5207852] |  |  |  |  |  | Ki (H3R): 0.3 nM; Ki (σ1R [1]; [8]): 1170 nM
13 | O=C(OCCN1CCOCC1)C1(c2ccccc2)CCCCC1 [PRE-084, 2-[4-morpholinethyl]1-phenylcyclohexanecarboxylate hydrochloride] |  |  |  |  |  | Ki [6]: > 10000 nM; effect of coadministration on potentiation of loperamide antinociception by S1RA (female CD1 mice; 75 μg ipl with S1RA, loperamide-treated, identical with 5 or 11): completely abolished the effect of the σ1R antagonist; Ki (σ2R [7]; [14]): 13100 nM; Ki (σ2R [7]; reference σ1R ligands, read-out: σ2R Ki): > 10000 nM
14 | Cc1cc(OCCN2CCOCC2)nn1-c1ccc2ccccc2c1 [S1RA, 4-[2-[[5-methyl-1-(2-naphthalenyl)-1H-pyraol-3-yl]oxy]ethyl]morpholine hydrochloride, reference compound] |  |  |  |  |  | Ki [6]: > 10000 nM; effect on loperamide-induced antinociception (female CD1 mice; ipl 100 μg + loperamide 4 mg/kg sc, injected paw): significantly increased the antinociceptive effect induced by loperamide; effect alone on struggle response latency to mechanical stimulus (female CD1 mice; ipl 100 μg, 450 g paw pressure, without loperamide): did not change the response to the mechanical stimulus
15 | CN(C)C(=O)C(CCN1CCC(O)(c2ccc(Cl)cc2)CC1)(c1ccccc1)c1ccccc1 [loperamide, loperamide hydrochloride, reference compound] |  |  |  |  |  | struggle response latency versus solvent (female CD1 mice; 4 mg/kg sc alone): minimal (nonsignificant) increase in the struggle response latency
16 | C=CCN1CC[C@]23c4c5ccc(O)c4O[C@H]2C(=O)CC[C@@]3(O)[C@H]1C5 [naloxone, Naloxone hydrochloride, reference compound] |  |  |  |  |  | effect on antinociception of loperamide + S1RA (female CD1 mice; 1 mg/kg sc, identical with 5 or 11): full reversion of the antinociceptive effect of the combination of loperamide + S1RA

Further lines, with some results ahead:

Row | Ki (σ2R [3]; [10]) [nM] | Ki (σ2R [3]; [11]) [nM] | Ki (σ1R [4]; [12]) [nM] | Ki (σ1R [4]; [13]) [nM] | σ2/σ1 ratio (σ1R [5]) | Structure (SMILES) | also measured
17 | 130 ± 8.23 | 130 | 112 ± 9.45 | 112 | 1.2 | CC(C)(C)c1ccc(OCCCN2CCN(c3ccncc3)CC2)cc1 [Compound 2] | 
18 | 247 ± 39.4 | 247 | 1410 ± 312 | 1410 | 0.2 | CC(=O)c1ccc(OCCCN2CCN(c3ccncc3)CC2)cc1 [Compound 3] | 
19 | 32.4 ± 3.46 | 32.4 | 641 ± 87.9 | 641 | 0.1 | O=C(c1ccc(Cl)cc1)c1ccc(OCCCN2CCN(c3ccncc3)CC2)cc1 [Compound 9] | 
20 | 164 ± 34.6 | 164 | 1310 ± 332 | 1310 | 0.1 | O=C(c1ccc(F)cc1)c1ccc(OCCCN2CCN(c3ccncc3)CC2)cc1 [Compound 10] | 
21 | 96.2 ± 14.7 | 96.2 | 14.8 ± 1.86 | 14.8 | 6.5 | O=C(c1ccccc1)c1ccc(OCCCN2CCCCC2)cc1 [Compound 12] | Ki [6]: 22 nM
22 | 175 ± 35.1 | 175 | 51.8 ± 9.1 | 51.8 | 3.4 | CC(C)(C)c1ccc(OCCCCN2CCN(c3ccncc3)CC2)cc1 [Compound 13] | 
23 | 101 ± 19.3 | 101 | 285 ± 50.4 | 285 | 0.4 | CCC(C)(C)c1ccc(OCCCCN2CCN(c3ccncc3)CC2)cc1 [Compound 14] | 
24 | 1790 ± 415 | 1800 | > 10000 | > 10000 | <0.2 | CC(=O)c1ccc(OCCCCN2CCN(c3ccncc3)CC2)cc1 [Compound 15] | 
25 | 151 ± 26.4 | 151 | 37.8 ± 16.1 | 37.8 | 4.0 | CC(=O)c1ccc(OCCCCCCN2CCN(c3ccncc3)CC2)cc1 [Compound 16] | Ki [2]: 12.7 nM
26 | 110 ± 15.9 | 110 | 248 ± 30.9 | 248 | 0.4 | CCC(=O)c1ccc(OCCCCCCN2CCN(c3ccncc3)CC2)cc1 [Compound 17] | Ki [2]: 16.9 nM
27 | 179 ± 27.2 | 179 | 255 ± 48 | 255 | 0.7 | CC(C)(C)c1ccc(OCCCCCCN2CCN(c3ccncc3)CC2)cc1 [Compound 18] | Ki [2]: 397 nM
28 | 59.7 ± 11.2 | 59.7 | 408 ± 111 | 408 | 0.1 | CC(=O)c1ccc(OCCCCCCCCN2CCN(c3ccncc3)CC2)cc1 [Compound 19] | Ki [2]: 40.5 nM
29 | 65.9 ± 11 | 65.9 | 274 ± 40.4 | 274 | 0.2 | CCC(=O)c1ccc(OCCCCCCCCN2CCN(c3ccncc3)CC2)cc1 [Compound 20] | Ki [2]: 38.9 nM
30 |  |  |  |  | 0.00012 | COOc1c(OC)cc(I)cc1C(=O)NCCCCN1CCc2cc(OC)c(OC)cc2C1 [RHM-4, N-(4-(6,7-Dimethoxy-3,4-dihydroisoquinolin-2(1H)-yl)butyl)-5-iodo-3-methoxy-2-(methylperoxy)benzamide] | Ki (σ1R [1]; read-out: σ1R Ki): 2150 nM; Ki (σ2R [7]; read-out: σ2R Ki): 0.26 nM
